Laboratory results taken from ChEMBL document CHEMBL4627333, “Addition of ethylamines to the phenols of bithionol and synthetic retinoids does not elicit activity in gram-negative bacteria” (2020).
Values after ≈ are worked out from the molar mass of the structure shown.

Assays:
Klebsiella pneumoniae = assay: Membrane disrupting activity in Klebsiella pneumoniae WGLW2 assessed as antibacterial activity by measuring inhibition of bacterial growth by CLSI-based antimicrobial dilution susceptibility method; details: subsp. pneumoniae WGLW2
Acinetobacter baumannii = assay: Membrane disrupting activity in Acinetobacter baumannii ATCC 17978 assessed as antibacterial activity by measuring inhibition of bacterial growth by CLSI-based antimicrobial dilution susceptibility method
Pseudomonas aeruginosa = assay: Membrane disrupting activity in Pseudomonas aeruginosa PA14 assessed as antibacterial activity by measuring inhibition of bacterial growth by CLSI-based antimicrobial dilution susceptibility method
Staphylococcus aureus [1] = assay: Membrane disrupting activity in methicillin-resistant Staphylococcus aureus BF2 assessed as antibacterial activity by measuring inhibition of bacterial growth by CLSI-based antimicrobial dilution susceptibility method
Staphylococcus aureus [2] = assay: Membrane disrupting activity in methicillin-resistant Staphylococcus aureus MW2 assessed as antibacterial activity by measuring inhibition of bacterial growth by CLSI-based antimicrobial dilution susceptibility method
Staphylococcus aureus [3] = assay: Membrane disrupting activity in methicillin-resistant Staphylococcus aureus BF3 assessed as antibacterial activity by measuring inhibition of bacterial growth by CLSI-based antimicrobial dilution susceptibility method
Staphylococcus aureus [4] = assay: Membrane disrupting activity in methicillin-resistant Staphylococcus aureus BF1 assessed as antibacterial activity by measuring inhibition of bacterial growth by CLSI-based antimicrobial dilution susceptibility method

## NCCOc1cc(CO)cc2ccc(-c3ccc(O)c(C45CC6CC(CC(C6)C4)C5)c3)cc12
Klebsiella pneumoniae
  MIC: > 64 µg/mL
Acinetobacter baumannii
  MIC: > 64 µg/mL
Pseudomonas aeruginosa
  MIC: > 64 µg/mL
Staphylococcus aureus [1]
  MIC: 4 µg/mL (≈ 9.02 µM)
Staphylococcus aureus [2]
  MIC: 4 µg/mL (≈ 9.02 µM)
Staphylococcus aureus [3]
  MIC: 4 µg/mL (≈ 9.02 µM)
Staphylococcus aureus [4]
  MIC: 4 µg/mL (≈ 9.02 µM)

## NCCOc1ccc(-c2ccc3cc(C(=O)O)ccc3c2)cc1C12CC3CC(CC(C3)C1)C2
Klebsiella pneumoniae
  MIC: > 64 µg/mL
Acinetobacter baumannii
  MIC: > 64 µg/mL
Pseudomonas aeruginosa
  MIC: > 64 µg/mL
Staphylococcus aureus [1]
  MIC: > 64 µg/mL
Staphylococcus aureus [2]
  MIC: > 64 µg/mL
Staphylococcus aureus [3]
  MIC: > 64 µg/mL
Staphylococcus aureus [4]
  MIC: > 64 µg/mL

## NCCOc1cc(C(=O)O)cc2ccc(-c3ccc(O)c(C45CC6CC(CC(C6)C4)C5)c3)cc12
Klebsiella pneumoniae
  MIC: > 64 µg/mL
Acinetobacter baumannii
  MIC: > 64 µg/mL
Pseudomonas aeruginosa
  MIC: > 64 µg/mL
Staphylococcus aureus [1]
  MIC: 16 µg/mL (≈ 35 µM)
Staphylococcus aureus [2]
  MIC: 8 µg/mL (≈ 17.5 µM)
Staphylococcus aureus [3]
  MIC: 4 µg/mL (≈ 8.74 µM)
Staphylococcus aureus [4]
  MIC: 8 µg/mL (≈ 17.5 µM)

## Oc1c(Cl)cc(Cl)cc1Sc1cc(Cl)cc(Cl)c1O [BITHIONOL]
Klebsiella pneumoniae
  MIC: 64 µg/mL (≈ 180 µM)
Acinetobacter baumannii
  MIC: 16 µg/mL (≈ 44.9 µM)
Pseudomonas aeruginosa
  MIC: 32 µg/mL (≈ 89.9 µM)
Staphylococcus aureus [1]
  MIC: 1 µg/mL (≈ 2.81 µM)
Staphylococcus aureus [2]
  MIC: 1 µg/mL (≈ 2.81 µM)
Staphylococcus aureus [3]
  MIC: 0.5 µg/mL (≈ 1.4 µM)
Staphylococcus aureus [4]
  MIC: 1 µg/mL (≈ 2.81 µM)

## O=C(O)c1ccc2cc(-c3ccc(O)c(C45CC6CC(CC(C6)C4)C5)c3)ccc2c1 [O-DEMETHYLATED ADAPALENE]
Klebsiella pneumoniae
  MIC: > 64 µg/mL
Acinetobacter baumannii
  MIC: > 64 µg/mL
Pseudomonas aeruginosa
  MIC: > 64 µg/mL
Staphylococcus aureus [1]
  MIC: 2 µg/mL (≈ 5.02 µM)
Staphylococcus aureus [2]
  MIC: 2 µg/mL (≈ 5.02 µM)
Staphylococcus aureus [3]
  MIC: 1 µg/mL (≈ 2.51 µM)
Staphylococcus aureus [4]
  MIC: 2 µg/mL (≈ 5.02 µM)

## NCCOc1ccc(-c2ccc3cc(CO)ccc3c2)cc1C12CC3CC(CC(C3)C1)C2
Klebsiella pneumoniae
  MIC: > 64 µg/mL
Acinetobacter baumannii
  MIC: > 64 µg/mL
Pseudomonas aeruginosa
  MIC: > 64 µg/mL
Staphylococcus aureus [1]
  MIC: > 64 µg/mL
Staphylococcus aureus [2]
  MIC: > 64 µg/mL
Staphylococcus aureus [3]
  MIC: > 64 µg/mL
Staphylococcus aureus [4]
  MIC: > 64 µg/mL

## NCCOc1c(Cl)cc(Cl)cc1Sc1cc(Cl)cc(Cl)c1OCCN
Klebsiella pneumoniae
  MIC: 64 µg/mL (≈ 145 µM)
Acinetobacter baumannii
  MIC: 64 µg/mL (≈ 145 µM)
Pseudomonas aeruginosa
  MIC: > 64 µg/mL
Staphylococcus aureus [1]
  MIC: 64 µg/mL (≈ 145 µM)
Staphylococcus aureus [2]
  MIC: 64 µg/mL (≈ 145 µM)
Staphylococcus aureus [3]
  MIC: 32 µg/mL (≈ 72.4 µM)
Staphylococcus aureus [4]
  MIC: 64 µg/mL (≈ 145 µM)
